5 molecules from US7399761B2, “Phthalazine derivatives with angiogenesis inhibiting activity” (Novartis AG, priority 2001, dated 2008) can be followed below.

One data set deals with T1, Cyp2C9 (Homo sapiens, UniProt P11712).
T1 construct: host or cells: insect cells (named in the general description as the expression system for P450 cDNAs)
Kind of data set: CyP450-Inhibition, recombinant Cytochrome P450 isoenzymes, fluorometric assay. Format: in vitro ADME. The settings on record: for IC50: recombinant CyP 450 enzyme, fluorescence-labelled substrate. The source says: (§1) This can be shown according to the following test system: Human liver microsomes or high level expression of cDNAs encoding Cytochrome P450 in insect cells provide a flexible source of materials for several in vitro measurement methods. A microtiter plate-based, direct fluorometric assay for the activities of any one or more of the principal drug metabolizing enzymes CYP1A2, CYP2C8, CYP2C9, CYP2C19, CYP2D6 and/or CYP3A4 is used in order to assess the potential for drug candidates to inhibit cytochrome P450.
(§2) Fluorescent marker substrates are incubated at concentrations close to their Michaelis-Men-ten affinity constant, Km. Inhibitors are tested in the 1 to 10 μM concentration range. 50% inhibition concentration (IC50 values) are estimated by non-linear regression of a two parameter model equation where the lower data limit is 0, i.e. the data are background corrected, and the upper data limit is 100, i.e. the data are range corrected. The equation assumes that y falls with increasing x. […] Extrapolation or interpolation of IC50 values beyond the concentration range studied are not provided.
(§3) Details for the assays and the technology that forms the basis for the assays are known (see C. L. Crespi et al., Analytical Biochemistry 248, 188-190 (1997), and CIL. Crespi et al., J. Pharmacol. Toxicol. Methods 44, 325-331 (2000), and the references mentioend therein). For example, 3-cyano-7-ethoxycoumarin is used as fluorescent substrate for CyP1A2, CYP2C9, CYP2C19 and CYP2D6, 7-methoxy-4-trifluoromethylcoumarin is used for CYP2C9, resorufin benzyl ether for CYP3A4, 3-82-(N,N-diethyl-N-methylammonium)ethyl]-7-methoxy-4-methylcoumarin for CYP2D6.
(§4) By the help of recombinant CyP 450 enzymes, the corresponding IC50 values for the compounds of formula I are determined. […] Description of the Assay: Fluorescence-labelled substrate compounds are incubated with different concentrations of test compound of formula I with recombinant Cytochrome P450 Isoenzymes. […] For details see above in the general description.

The next data set addresses T2, Cyp3A4 (Homo sapiens, UniProt P08684).
T2 construct: host or cells: insect cells (named in the general description as the expression system for P450 cDNAs)
The data set is described as above. Format: in vitro ADME. The settings on record: for IC50: recombinant CyP 450 enzyme, fluorescence-labelled substrate.
Description: as §1, §2, §3, §4

The target of a further data set is T3, Cyp2C8 (Homo sapiens, UniProt P10632).
T3 construct: host or cells: insect cells (named in the general description as the expression system for P450 cDNAs)
T3 sequence (P10632 1-490): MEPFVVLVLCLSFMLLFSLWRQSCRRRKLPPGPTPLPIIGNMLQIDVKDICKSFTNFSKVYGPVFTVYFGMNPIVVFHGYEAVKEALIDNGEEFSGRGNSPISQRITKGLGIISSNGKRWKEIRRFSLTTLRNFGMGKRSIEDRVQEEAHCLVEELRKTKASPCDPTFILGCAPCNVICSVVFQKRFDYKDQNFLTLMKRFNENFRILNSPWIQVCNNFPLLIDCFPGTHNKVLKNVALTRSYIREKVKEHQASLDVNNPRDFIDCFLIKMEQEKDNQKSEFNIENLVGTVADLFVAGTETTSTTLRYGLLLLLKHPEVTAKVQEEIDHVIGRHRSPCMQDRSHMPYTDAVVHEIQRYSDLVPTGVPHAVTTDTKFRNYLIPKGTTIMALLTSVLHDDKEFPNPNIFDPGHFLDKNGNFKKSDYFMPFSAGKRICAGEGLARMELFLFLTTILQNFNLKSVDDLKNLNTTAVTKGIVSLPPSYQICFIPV
The description is as above. Particulars: for IC50: recombinant CyP 450 enzyme, fluorescence-labelled substrate. Format: in vitro ADME.
Description: as §1, §2, §3, §4

The target in data set [1] is T4, Flt-1 VEGF-receptor tyrosine kinase (Homo sapiens, UniProt P17948).
T4 construct: 10 ng of the kinase domain of Flt-1
T4 sequence (P17948 827-1158 limits assumed): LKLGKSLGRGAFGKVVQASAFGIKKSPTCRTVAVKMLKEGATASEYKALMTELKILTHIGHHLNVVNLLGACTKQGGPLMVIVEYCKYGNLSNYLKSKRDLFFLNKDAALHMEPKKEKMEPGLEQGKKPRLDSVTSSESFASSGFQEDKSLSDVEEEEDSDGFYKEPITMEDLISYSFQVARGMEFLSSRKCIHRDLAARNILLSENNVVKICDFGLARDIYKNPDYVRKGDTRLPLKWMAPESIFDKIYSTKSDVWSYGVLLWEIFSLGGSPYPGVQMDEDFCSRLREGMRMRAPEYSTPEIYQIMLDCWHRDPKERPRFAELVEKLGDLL
Briefly: Test for activity against Flt-1 VEGF-receptor tyrosine kinase. The data set is classed as biochemical. The settings on record: kinase domain of Flt-1, poly(Glu,Tyr) 4:1, 8 μM [33P]-ATP, 15 minutes at room temperature. The protocol: Test for activity against VEGF-receptor tyrosine kinase: the test is conducted using Flt-1 VEGF-receptor tyrosine kinase. The detailed procedure is as follows: 30 μl kinase solution (10 ng of the kinase domain of Flt-1, Shibuya et al., Oncogene 5, 519-24 [1990]) in 20 mM Tris.HCl pH 7.6, 3 mM manganese dichloride (MnCl2), 3 mM magnesium chloride (MgCl2) and 3 μg/ml poly(Glu,Tyr) 4:1 (Sigma, Buchs, Switzerland), 8 μM [^33P]-ATP (0.2 μCi/batch), 1% dimethyl sulfoxide, and 0 to 50 μM of the compound to be tested are incubated together for 15 minutes at room temperature. The reaction is then ended by the addition of 10 μl 0.25 M ethylenediaminetetraacetate (EDTA) pH 7. Using a multichannel dispenser (LAB SYSTEMS, USA), an aliquot of 20 μl is applied to a PVDF (=polyvinyl difluoride) Immobilon P membrane (Millipore, USA), which is incorporated into a Millipore microtitre filter manifold, and connected to a vacuum. Following complete elimination of the liquid, the membrane is washed 4 times successively in a bath containing 0.5% phosphoric acid (H3PO4), incubated for 10 minutes each time while shaking, then mounted in a Hewlett Packard TopCount Manifold and the radioactivity measured after the addition of 10 μl Microscint® (β-scintillation counter liquid; Packard USA). […]
The IC50 values determined are given below, insofar as they have been accurately determined: […]

The structures appear in SMILES notation.

T2 sequence (P08684 whole entry): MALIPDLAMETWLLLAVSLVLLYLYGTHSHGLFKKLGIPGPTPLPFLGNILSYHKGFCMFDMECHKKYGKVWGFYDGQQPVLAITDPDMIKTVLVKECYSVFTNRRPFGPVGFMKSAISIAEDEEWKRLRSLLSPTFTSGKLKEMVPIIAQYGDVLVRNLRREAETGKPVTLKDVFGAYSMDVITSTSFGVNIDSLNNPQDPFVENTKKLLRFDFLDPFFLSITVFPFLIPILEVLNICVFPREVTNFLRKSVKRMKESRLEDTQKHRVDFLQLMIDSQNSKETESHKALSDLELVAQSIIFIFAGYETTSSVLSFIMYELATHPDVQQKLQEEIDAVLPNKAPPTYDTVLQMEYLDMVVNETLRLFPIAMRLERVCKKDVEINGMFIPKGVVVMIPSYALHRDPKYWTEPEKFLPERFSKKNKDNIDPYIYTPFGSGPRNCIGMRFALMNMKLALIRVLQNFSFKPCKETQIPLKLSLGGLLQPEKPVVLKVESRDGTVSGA
T1 sequence (P11712 whole entry): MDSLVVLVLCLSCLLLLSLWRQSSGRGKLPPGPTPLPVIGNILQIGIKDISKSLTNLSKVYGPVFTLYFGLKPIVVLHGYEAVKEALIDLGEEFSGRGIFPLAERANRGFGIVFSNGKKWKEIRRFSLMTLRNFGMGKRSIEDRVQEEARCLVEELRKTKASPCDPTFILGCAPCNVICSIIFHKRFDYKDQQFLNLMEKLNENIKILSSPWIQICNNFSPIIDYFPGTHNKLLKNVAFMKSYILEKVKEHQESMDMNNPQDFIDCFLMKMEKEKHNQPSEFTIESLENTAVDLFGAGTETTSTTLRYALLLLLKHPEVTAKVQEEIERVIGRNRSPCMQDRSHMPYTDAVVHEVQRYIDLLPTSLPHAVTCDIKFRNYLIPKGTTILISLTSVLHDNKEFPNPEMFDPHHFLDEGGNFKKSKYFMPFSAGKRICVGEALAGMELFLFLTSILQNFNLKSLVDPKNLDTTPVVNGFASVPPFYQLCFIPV

As usually defined, the IC50 is the concentration that inhibits the measured activity by half. Regarding `CCc1ccc(Nc2nnc(Cc3ccc(=O)[nH]c3)c3ccccc23)cc1Br` [Ex. 8], the “lower inhibition when compared with Ex. 14 q from WO 00/59509” value at Cyp2C9 (ratio of IC50 values), at Cyp3A4 (ratio of IC50 values) and at Cyp2C8 (ratio of IC50 values) was “more than two-fold” throughout. Besides, the IC50 is 3.5 µM at Cyp2C9, 2.8 µM on Cyp3A4 and above 10 µM at Cyp2C8.

The molecule `COc1cc(Cc2nnc(N[C@H]3CC[C@H](C(C)C)CC3)c3ccccc23)ccn1` [Example 1 d)] came in with an IC50 in data set [1] of 1.2 µM.

A word on the melting point: it is the temperature, or range, at which the solid turns liquid. In the case of `CC(C)[C@H]1CC[C@H](Nc2nnc(Cc3ccnc(O)c3)c3ccccc23)CC1` [Example 1, trans 1-(4-Isopropyl-cyclohexylamino)4-[2-hydroxy-(pyridin-4-yl)methyl]-phthalazine], the melting point was 266 to 267 °C (dec.).

Molecule `CCc1ccc(Nc2nnc(Cc3ccnc(OC)c3)c3ccccc23)cc1Br` [Example 2 d), 1-(3-Bromo-4ethyl-anilino)-4-[2-methoxy-(pyridin-4-yl)-methyl]-phthalazine] had an IC50 in data set [1] of 1.9 µM.

Consider `CCc1ccc(Nc2nnc(Cc3ccncc3)c3ccccc23)cc1Br` [WO 00/59509 (Ex. 14 q), reference compound], for which the IC50 on Cyp2C9 is below 1 µM; on Cyp3A4, below 1 µM; on Cyp2C8, 5 µM.
